How the values were obtained:
Type in all cases: binding, sheep
Conditions in all cases: Cross-reactants at 100 ng/ml; 1000ng/ml; single level of cross reactants
[1] = system: Antibody to Immunogen III
Description: (§1) The wells of an enhanced binding 96 well polystyrene microtiter plate were coated with IgG fraction of antiserum raised to Immunogen VI, diluted in 10mM Tris, pH8.5 (125µl/well). The appropriate antibody coating dilution was determined using standard ELISA checkerboard techniques. The plate was incubated overnight at 4°C, washed 4 times over 10 minutes with Tris buffered saline containing Tween 20 (TBST) and tapped dry. Standard solutions of RCS-4 were prepared in TBST at 0, 0.3125, 0.625, 1.25, 2.5, 5, 10 and 20ng/ml, and 50µl of each was added to the appropriate wells (see figure 1). 75µl of conjugate (appropriate hapten-HRP) diluted in Tris buffer (pH 7.2) containing EDTA, D-mannitol, sucrose, thimerosal and BSA, was added to each of the wells. The appropriate dilution of conjugate was also determined using standard ELISA checkerboard techniques. The plate was incubated at 25°C for 1 hour. Excess unbound conjugate was removed by washing 6 times over a 10 minute period with TBST. 125µl oftetramethylbenzidine (TMB) substrate solution was added to each well of the plate that was then incubated for 20 minutes in the dark at room temperature. The reaction was terminated by addition of 125µl 0.2M H2SO4 to each well. The absorbance was then measured at 450nm using a microtiter plate reader. The data are inputted to a computer program called 'KC Junior'. It is a 4 parameter fit curve and allow the calculatation of concentrations between the standard runs. This program is used to calculate the IC50s by dividing the 0ng/ml OD value by 2 and obtaining the concentration value from the curve for this OD.
In a similar manner to that described above, the wells of a 96-well microtiter plate were coated with the IgG fraction of the antiserum raised to Immunogens I, II or III. Standard solutions (JWH-250 for Immunogen III) were applied at 0, 0.625, 1.25, 2.5, 5, 10, 20 and 40ng/ml and conjugate was employed as detection reagent.
(§2) The data set our in Tables 3 and 4 are generated using antibodies raised against the indicated Immunogens in a competitive binding assay with the indicated tracers, using the indicated standards: Table 2
(§3) In order to determine the specificity of the competitive ELISAs, standard solutions of a range of structurally similar synthetic cannabinoids and their metabolites were prepared in TBST. Using the calibration curves generated and employing a single level of cross reactants, these were used to determine the cross-reactivity of each immunoassay with these substances. Table 4: Cross reactivity of the competitive ELISAs for synthetic cannabinoids and their metabolites

Antibody to Immunogen V = system: Antibody to Immunogen V
Description: as §1
In a similar manner to that described above, the wells of a 96-well microtiter plate were coated with the IgG fraction of the antiserum raised to Immunogens IV, V, VII or VIII. Standard solutions (RCS-8 for Immunogen V) were prepared in TBST at 0, 1.25, 2.5, 5, 10, 20, 40 and 80ng/ml and conjugate was employed as detection reagent.
as §2, §3

Antibody to Immunogen VI = system: Antibody to Immunogen VI
Description: as §1, §2, §3

SMILES | %B/B0 [1] | %B/B0 (Antibody to Immunogen V) | %B/B0 (Antibody to Immunogen VI)
CCCCCn1c(O)c(C(=O)c2cccc3ccccc23)c2ccccc21 | 97.61% | 98.82% | 101.92%
CCCCn1c(O)c(C(=O)c2cccc3ccccc23)c2ccccc21 | 97.53% | 91.80% | 89.23%
CCCCCn1cc(C(=O)c2cccc3ccccc23)c2c(O)cccc21 | 82.22% | 83.42% | 92.00%
CCCCn1cc(C(=O)c2cccc3ccccc23)c2c(O)cccc21 | 84.57% | 76.09% | 84.39%
CCCCCn1cc(C(=O)c2cccc3ccccc23)c2cc(O)ccc21 | 96.24% | 88.70% | 95.94%
CCCCn1cc(C(=O)c2cccc3ccccc23)c2cc(O)ccc21 | 95.65% | 82.86% | 85.96%
CCCCCn1cc(C(=O)c2cccc3ccccc23)c2ccc(O)cc21 | 92.91% | 75.65% | 91.26%
CCCCn1cc(C(=O)c2cccc3ccccc23)c2ccc(O)cc21 | 94.60% | 68.70% | 84.50%
CCCCCn1cc(C(=O)c2cccc3ccccc23)c2cccc(O)c21 | 97.89% | 80.99% | 91.71%
CCCCn1cc(C(=O)c2cccc3ccccc23)c2cccc(O)c21 | 95.81% | 73.04% | 81.62%
CCCCCCCC(C)(C)c1ccc(C2CCCC(O)C2)c(O)c1 (stereo not drawn) | 95.39% | 86.41% | 100.84%
CCCCCCn1cc(C(=O)c2cccc3ccccc23)c2cc(O)ccc21 | 95.38% | 79.13% | 89.29%
CCCCn1cc(C(=O)c2ccc(OC)cc2)c2ccccc21 | 62.80% | 76.87% | 4.40%
CC(O)CCCn1cc(C(=O)c2cccc3ccccc23)c2ccccc21 (racemic) | 86.69% | 75.59% | 76.16%
CCCCCCC(C)(C)c1ccc([C@@H]2C[C@H](O)CC[C@H]2CCCO)c(O)c1 (racemic) [((+-)-CP 55,940)] | 93.49% | 80.97% | 98.86%
CCCCCCC(C)(C)c1ccc([C@H]2CCC[C@@H](O)C2)c(O)c1 (racemic) [CP-49,497-C7 ((+-) CP 47,497)] | 96.91% | 69.53% | 95.90%
CC(F)CCCn1cc(C(=O)c2cccc3ccccc23)c2ccccc21 (single isomer, unassigned) [AM-2201 N-(4-fluoropentyl) isomer] | 68.00% | 52.90% | 71.98%
CC(C)C(C)n1cc(C(=O)c2cccc3ccccc23)c2ccccc21 (single isomer, unassigned) [JWH 018 N-(1,2-dimethylpropyl) isomer] | 90.17% | 74.41% | 83.71%
CCCC(C)n1cc(C(=O)c2cccc3ccccc23)c2ccccc21 (single isomer, unassigned) [JWH-018 N-(1-methylbutyl) isomer] | 87.31% | 76.65% | 85.57%
CCC(C)Cn1cc(C(=O)c2cccc3ccccc23)c2ccccc21 (single isomer, unassigned) [JWH-018 N-(2-methylbutyl) isomer (JWH-073 2-methylbutyl homologue)] | 92.91% | 69.13% | 80.10%

SMILES | %B/B0 [1] | %B/B0 (Antibody to Immunogen V) | %B/B0 (Antibody to Immunogen VI)
O=C(O)Cc1c[nH]c2ccc(O)cc12 [5-hydroxyindole-3-acetic acid (5-HIAA), 5-hydroxyindole-3-acetic acid] | 90.54% | 92.46% | 95.75%
OCCc1c[nH]c2ccc(O)cc12 [5-hydroxytryptophol] | 85.39% | 90.61% | 95.67%
CS(=O)(=O)O.Cc1c(C(=O)c2cccc3ccccc23)c2cccc3c2n1[C@H](CN1CCOCC1)CO3 [(+)WIN 55212-2 (mesylate)] | 93.28% | 68.43% | 91.65%
CN1CCCCC1Cn1cc(C(=O)c2ccccc2I)c2ccccc21 (stereo not drawn) [AM-223] | 95.28% | 54.35% | 79.16%
COc1ccc(C(=O)c2c(C)n(CCN3CCOCC3)c3cc(I)ccc23)cc1 [AM-630 (other name 6-Iodopravadoline), 6-Iodopravadoline] | 91.34% | 71.78% | 39.25%
O=C(c1cccc(I)c1)c1cn(CCCCCF)c2ccccc12 [AM-694 3-iodo isomer] | 67.86% | 63.18% | 44.38%
O=C(c1ccc(I)cc1)c1cn(CCCCCF)c2ccccc12 [AM-694 4-iodo isomer] | 65.53% | 77.65% | 16.99%
O=C(c1ccccc1I)c1cn(CCCCCF)c2ccccc12 [AM-694] | 72.80% | 64.61% | 70.77%
CN1CCCCC1Cn1cc(C(=O)c2cccc3ccccc23)c2ccccc21 (stereo not drawn) [AM-1220] | 99.70% | 63.74% | 81.44%
CN1CCCCC1Cn1cc(C(=O)c2cc([N+](=O)[O-])ccc2I)c2ccccc21 (stereo not drawn) [AM-1241] | 102.11% | 71.68% | 99.43%
O=C(c1cccc2ccccc12)c1cn(CCCC(O)CF)c2ccccc12 (stereo not drawn) [AM-2201 N-(4-hydroxypentyl) metabolite] | 68.76% | 50.40% | 77.68%
O=C(c1cccc2ccccc12)c1cn(CCCCCF)c2ccccc12 [AM-2201] | 67.95% | 76.07% | 76.96%
CCCCCCC(C)(C)C1=CC(=O)C(C2CCCC(O)C2)=CC1=O (stereo not drawn) [CP-47,497-para-quinone analogue] | 96.58% | 72.98% | 94.38%
CCCCCc1cc(O)c2c(c1)OC(C)(C)c1ccc(C)cc1-2 [Cannabinol] | 97.02% | 64.54% | 95.90%
CCCCCc1cc(O)c2c(c1)OC(C)(C)[C@@H]1CCC(C)=C[C@@H]21 [Delta 9 THC] | 91.21% | 65.28% | 94.84%
CCCCCCC(C)(C)c1cc(O)c2c(c1)OC(C)(C)[C@@H]1CC=C(CO)C[C@@H]21 [HU-210] | 91.13% | 67.43% | 90.89%
CCCCCCC(C)(C)c1cc(O)c2c(c1)OC(C)(C)[C@H]1CC=C(CO)C[C@H]21 [HU-211 (Dexanabinol), Dexanabinol] | 95.96% | 71.68% | 98.97%
CCCCCCC(C)(C)c1cc(OC)c([C@@H]2C=C(CO)[C@@H]3C[C@H]2C3(C)C)c(OC)c1 [HU-308] | 96.26% | 71.33% | 97.34%
O=C(O)c1c[nH]c2ccccc12 [Indole-3-carboxylic Acid] | 91.19% | 64.69% | 95.41%
